Values of other authors in patent publication US11398630B2, “Method of generating energy from a hydrazide containing anode fuel, and fuel cell” (priority 2019, dated 2022).
Where two headings read alike, the source gives them in different places.

How the values were obtained:
[1] = system: rat
[2] = ambient conditions

Compound	Toxicity-LD50 oral rat ([1]; oral, rat)	other results
B [Borohydride]	160 mg/kg	–
NNC(=O)NN [Carbohydrazide, carbohydrazide]	>5,000 mg/kg	miscibility with water [2]: ^aUnder ambient conditions, carbohydrazide is a solid, but it is completely miscible with water.; toxicity in words ([1]; compared with hydrazine): nontoxic; LD50 ([1]; rat, printed as mg/kg-rat, route not given): > 5,000 mg/kg
COC [Dimethyl ether]	>5,000 mg/kg	–
CCO [Ethanol]	–	Toxicity-LD50 oral rat ([1]; rat, in vivo, po): >5,000 mg/kg
OCC(O)CO [Glycerol]	>5,000 mg/kg	–
CO [Methanol]	>5,000 mg/kg	–
